Earlier results, collected in patent US10144913B1, “Method to increase the yield of products in plant material” (Arkansas State University-Jonesboro, priority 2012, dated 2018).

Key:
rotavirus = rotavirus infected HT29.f8 cells; Ball et al., 2015
HL-60 cells = conditions: caspase-dependent and caspase-independent pathways, Huang et al., 2010
[1] = target: type II cannabinoid receptor (Homo sapiens, UniProt P34972); conditions: effect of the isoprenyl moiety; Brents et al., 2012
cannabinoid receptors = conditions: US 20120165281
[2] = in vitro, compared to resveratrol
[3] = in vitro, compared to resveratrol; US 20120165281

Sequence of type II cannabinoid receptor (P34972 whole entry): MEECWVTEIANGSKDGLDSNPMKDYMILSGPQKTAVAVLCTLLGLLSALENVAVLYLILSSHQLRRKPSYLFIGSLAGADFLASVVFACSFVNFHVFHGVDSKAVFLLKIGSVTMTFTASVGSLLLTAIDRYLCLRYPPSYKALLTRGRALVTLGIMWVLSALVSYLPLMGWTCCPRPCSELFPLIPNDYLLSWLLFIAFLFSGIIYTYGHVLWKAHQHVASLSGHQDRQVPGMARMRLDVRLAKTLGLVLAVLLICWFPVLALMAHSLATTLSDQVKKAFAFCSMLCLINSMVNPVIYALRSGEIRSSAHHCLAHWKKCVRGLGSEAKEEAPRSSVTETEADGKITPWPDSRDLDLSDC

SMILES	antiviral activity (inhibiting rotavirus replication) (rotavirus)	anticancer activity (HL-60 cells)	binding affinity to type II cannabinoid receptor [1]	affinity to cannabinoid receptors (cannabinoid receptors)	antioxidant activities [2]	metabolic profiles [3]
CC(C)/C=C/c1c(O)cc(/C=C/c2ccc(O)c(O)c2)cc1O [arachidin-1]	exhibited antiviral activity	anticancer activity	improved binding affinity	have affinity	higher antioxidant activities than resveratrol	favorable metabolic profiles
CC(C)/C=C/c1c(O)cc(/C=C/c2ccc(O)cc2)cc1O [arachidin-3]	exhibited antiviral activity		improved binding affinity	have affinity		favorable metabolic profiles
Oc1ccc(C=Cc2cc(O)cc(O)c2)cc1 [resveratrol, reference compound]	not observed					
